Experimental data: patent US8017386B2, “Divinyl ether synthase gene and protein, and uses thereof” (priority 2000, dated 2011)

Tests used:
[1] = molecular target: T1, CYP74D1 (Solanum lycopersicum, UniProt Q9FPM6); assay: Kinetic assays with affinity purified CYP74D-6H (decrease in A234); conditions: for estimated turnover rate (kcat): purified CYP74D-6H, assuming the total protein content to be active; for Km: read-out: apparent Km, recombinant DES (summary in description)
T1 sequence (Q9FPM6 whole entry): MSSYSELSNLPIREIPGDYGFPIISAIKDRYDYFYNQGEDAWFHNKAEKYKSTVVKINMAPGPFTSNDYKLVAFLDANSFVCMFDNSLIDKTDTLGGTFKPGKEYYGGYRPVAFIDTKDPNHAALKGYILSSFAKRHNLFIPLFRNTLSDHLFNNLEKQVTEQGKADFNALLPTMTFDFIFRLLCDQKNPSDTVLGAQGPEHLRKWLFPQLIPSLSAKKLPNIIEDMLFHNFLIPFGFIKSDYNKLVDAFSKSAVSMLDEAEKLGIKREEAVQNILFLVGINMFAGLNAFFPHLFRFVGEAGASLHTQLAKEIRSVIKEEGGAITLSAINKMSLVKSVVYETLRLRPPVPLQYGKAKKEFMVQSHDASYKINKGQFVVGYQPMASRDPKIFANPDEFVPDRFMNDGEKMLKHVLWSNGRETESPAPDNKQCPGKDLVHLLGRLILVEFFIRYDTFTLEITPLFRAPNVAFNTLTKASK

[2] = molecular target: T2, CYP74D1 (Solanum lycopersicum, UniProt Q9FPM6)
T2 sequence (Q9FPM6 10-478 limits assumed): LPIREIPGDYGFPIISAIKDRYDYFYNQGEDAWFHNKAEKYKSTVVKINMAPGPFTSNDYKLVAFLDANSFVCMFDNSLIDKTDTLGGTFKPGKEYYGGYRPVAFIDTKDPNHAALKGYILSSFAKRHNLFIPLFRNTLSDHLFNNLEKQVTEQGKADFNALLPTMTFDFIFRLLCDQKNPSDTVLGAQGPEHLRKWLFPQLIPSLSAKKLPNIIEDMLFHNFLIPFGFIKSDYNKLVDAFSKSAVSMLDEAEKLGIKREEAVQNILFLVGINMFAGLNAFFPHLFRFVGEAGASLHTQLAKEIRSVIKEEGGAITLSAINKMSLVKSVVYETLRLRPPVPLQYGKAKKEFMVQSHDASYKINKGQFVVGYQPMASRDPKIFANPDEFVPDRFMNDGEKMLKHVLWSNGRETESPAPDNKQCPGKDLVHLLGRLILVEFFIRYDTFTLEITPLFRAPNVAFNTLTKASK

[3] = molecular target: T1, CYP74D1; remark: listed apart in the source

SMILES	estimated turnover rate (kcat) [1] [s⁻¹]	Km [1] [µM]	metabolism by extracts containing 6H-CYP74D (in words) [2]	metabolized at % of the rate observed for 9-HPOD [3] [%]
CCCCC/C=C\C=C\[C@H](CCCCCCCC(=O)O)OO [9-HPOD, 9(S)-hydroperoxy-10(E),12(Z)-octadecadienoic acid]	890	~67	efficiently metabolized	
CC/C=C\C/C=C\C=C\[C@H](CCCCCCCC(=O)O)OO [9-HPOT, 9(S)-hydroperoxy-10(E),12(Z),15(Z)-octadecatrienoic acid]	500	~48	efficiently metabolized	
CCCCC[C@@H](/C=C/C=C\CCCCCCCC(=O)O)OO [13-HPOD, 13(S)-hydroperoxy-9(Z),11(E)-octadecadienoic acid]			poor substrates	
CC/C=C\C[C@@H](/C=C/C=C\CCCCCCCC(=O)O)OO [13-HPOT, 13(S)-hydroperoxy-9(Z),11(E),15(Z)-octadecatrienoic acid]			poor substrates	< 5
